≈ marks a conversion by molar mass, not a printed value. Like-named read-outs stand apart in the source and are kept apart here.
Assays:
[1] = Water-solubility, stirred in water 24 h at 25 °C, HPLC quantification; format: physicochemical
Procedure: The mixture was centrifuged at 100,000 g for 30 min at 25 °C. The concentration of test compounds was estimated on the basis of their peak areas using calibration curves prepared by HPLC analyses of authentic samples.

KB human cancer cells [2] = assay: MTT cytotoxicity assay in KB cells; format: cell-based; details: 24 h treatment
Procedure: (§1) The sensitivity of KB and MCF-7 cells to docetaxel or 4–6 was determined according to the previously reported method. Cells were diluted with culture medium to the seeding density (10^5 cells/mL), suspended in 96-well tissue culture plates (100 μL/well), preincubated at 37 °C for 4 h, and then treated for 24 h with docetaxel or 4–6 at various concentrations to obtain a dose–response curve for each compound. After incubation, 20 μL MTT solution (2.5 mg/mL) was added to each well and the plates were further incubated for 4 h. Absorbance at 570 nm was measured with a microplate reader model 450 (BIO-RAD). Dose-response curves were plotted on a semi-log scale as percentage of the cell numbers in control cultures not exposed to test compounds.

MCF-7 human cancer cells = assay: MTT cytotoxicity assay in MCF-7 cells; format: cell-based; details: for IC50 MCF-7 cells: 24 h treatment
Procedure: as §1

KB human cancer cells [3] = assay: Hydrolysis of prodrugs by KB cells, release of docetaxel (HPLC); format: cell-based; details: 5 μmol compound, 20 mg KB cells in RPMI 1640, 37 °C, 24 h
Procedure: To a 5-mL vial containing RPMI 1640 medium (1 mL, Nissui Pharmaceutical Co. Ltd.) and KB cells (20 mg) was added 5 μmol of each compound. The mixture was incubated at 37 °C for 24 h. The cells and medium were separated by centrifugation at 10,000 g for 5 min. The cells were extracted with MeOH. MeOH extract was concentrated, and the residue was partitioned between H2O and CH2Cl2. The medium was extracted with CH2Cl2. The CH2Cl2 fractions were combined, concentrated, and analyzed by HPLC. The yield of docetaxel was calculated on the basis of the peak area from HPLC using a calibration curve provided by HPLC analyses of authentic docetaxel.

| solubility at 24 h [1] [µM] | Conversion to docetaxel (hydrolysis by KB cells) (KB human cancer cells [3]) [%] | Fold (water-solubility relative to docetaxel) ([1]; relative to docetaxel) [fold] | solubility at 24 h ([1]; thermodynamic from solid) [µM] | Compound | IC50 KB cells (KB human cancer cells [2]) [µg/mL] | IC50 MCF-7 cells (MCF-7 human cancer cells) [µg/mL] | IC50 (KB human cancer cells [2]; Homo sapiens) [µg/mL] | IC50 (MCF-7 human cancer cells; Homo sapiens, MCF7, 24 h treatment) [µg/mL] |
| --- | --- | --- | --- | --- | --- | --- | --- | --- |
| 25.5 | 45 | – | – | 7-propionyldocetaxel 3''-O-β-D-galactopyranoside [Compound 5] | 41 | 28 | – | – |
| 20.2 | 76 | – | – | 7-propionyldocetaxel 3''-O-β-D-xylopyranoside [Compound 6] | 25 | 12 | – | – |
| – | – | 1 | 0.5 (≈ 0.404 µg/mL) | CC(=O)O[C@@]12CO[C@@H]1C[C@H](O)[C@@]1(C)C(=O)[C@H](O)C3=C(C)[C@@H](OC(=O)[C@H](O)[C@@H](NC(=O)OC(C)(C)C)c4ccccc4)C[C@@](O)([C@@H](OC(=O)c4ccccc4)[C@H]21)C3(C)C [Docetaxel] | – | – | 12 (≈ 14.9 µM) | 5 (≈ 6.19 µM) |

Source: publication PMC6264731, “Chemo-Enzymatic Synthesis of Ester-Linked Docetaxel-Monosaccharide Conjugates as Water-Soluble Prodrugs” (Molecules, 2011)
